According to patent publication US12318452B2, “Degraders of WEE1 kinase” (DANA-FARBER CANCER INSTITUTE, INC., priority 2018, dated 2025):

Assays:
Assay type in all cases: cell-based
[1] = test system: CRBN−/− MOLT4 cells; assay: CellTiter-Glo cell viability, 72 hours
[2] = test system: pCDK1 Y15; assay: Downstream signalling immunoblot in MOLT4 cells (pCDK1 Y15, cleaved PARP, γH2Ax)
Protocol: Whole cell lysates for immunoblotting were prepared by pelleting cells from each cell line at 4° C. (300 g) for 5 minutes. The resulting cell pellets were washed 1× with ice-cold PBS and then resuspended in RIPA lysis buffer (Sigma, cat #R0278) supplemented with protease and phosphatase inhibitor tablets (Roche cat #4906845001). Lysates were clarified at 14,000 rpm for 15 minutes at 4° C. prior to quantification by BCA assay (Pierce™, cat #23225). Whole cell lysates were loaded into Bolt 4-12% Bis-Tris Gels (Thermo Fisher, cat #NW04120BOX) and separated by electrophoreses at 95 V for 1.5 hours. The gels were transferred to a nitrocellulose membrane using the iBlot® Gel Transfer at P3 for 7 minutes (Thermo Fisher, cat #IB23001) and then blocked for 1 hour at room temperature in Odyssey® blocking buffer (LICOR® Biosciences, cat #927-50010). Membranes were probed using antibodies against the relevant proteins at 4° C. overnight in 20% Odyssey® Blocking Buffer in 1×TBST. Membranes were then washed three times with 1×TBST (at least 5 minutes per wash) followed by incubation with the IRDye® goat anti-mouse (LICOR®, cat #926-32210) or goat anti-rabbit (LICOR®, cat #926-32211) secondary antibody (diluted 1:10,000) in 20% Odyssey® Blocking Buffer in 1×TBST for 1 hour at room temperature. After three washes with 1×TBST (at least 5 minutes per wash), the immunoblots were visualized using the ODYSSEY® Infrared Imaging System (LICOR®).
(§1) MOLT4 cells were plated at 1.5 million cells per well in a 6-well plate, with 3 mL of media per well. Cells were then immediately treated with the indicated concentration of the indicated compound and incubated for the indicated amount of time. Cells were collected by transferring each well to a 15 mL conical, centrifuging (1000 rpm for 3 min), then washing the cell pellet 2× with cold PBS. Each cell pellet was then lysed in 100 μL of RIPA lysis buffer (+protease/phosphatase inhibitors). Samples were normalized and prepped in 4×LDS+10% β-mercaptoethanol and boiled for 5 min at 95° C. Lysates were probed for specified proteins by western blotting using the Bolt® system (Life Technologies™)
The effects of targeted Wee1 degradation on the cell cycle were evaluated. Wee1 is required for the temporal regulation of CDK1 at the G2/M cell-cycle checkpoint, and Wee1 loss therefore […] via activation of CDK1. Following loss of Wee1 activity, cells are expected to enter mitosis before completing DNA repair, ultimately resulting in excessive unrepaired DNA damage, mitotic catastrophe, and apoptosis (Beck et al., Mol. Cell Biol. 32:4226-4236 (2012)).

[3] = molecular target: PLK1 (Homo sapiens, UniProt P53350); assay: PLK1 level by immunoblot in MOLT4 cells
Chain of PLK1 (P53350 whole entry): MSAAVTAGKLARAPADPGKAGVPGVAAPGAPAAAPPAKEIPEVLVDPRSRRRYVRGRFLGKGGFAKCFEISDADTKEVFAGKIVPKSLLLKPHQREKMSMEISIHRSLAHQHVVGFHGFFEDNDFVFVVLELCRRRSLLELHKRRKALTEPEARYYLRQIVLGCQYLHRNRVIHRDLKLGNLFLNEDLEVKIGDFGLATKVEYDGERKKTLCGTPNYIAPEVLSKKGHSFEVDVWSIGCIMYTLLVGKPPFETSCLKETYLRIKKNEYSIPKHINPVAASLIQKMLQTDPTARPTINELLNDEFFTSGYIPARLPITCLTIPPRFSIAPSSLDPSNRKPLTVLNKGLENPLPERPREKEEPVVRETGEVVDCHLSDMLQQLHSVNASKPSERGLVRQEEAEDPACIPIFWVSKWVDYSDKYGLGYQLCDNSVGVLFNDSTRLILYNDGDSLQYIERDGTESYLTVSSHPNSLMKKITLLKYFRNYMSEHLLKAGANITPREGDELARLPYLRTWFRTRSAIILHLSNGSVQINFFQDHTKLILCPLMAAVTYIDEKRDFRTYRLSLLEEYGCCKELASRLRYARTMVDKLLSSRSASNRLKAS
Protocol: as §1
Immunoblotting: Cells were washed with phosphate-buffered saline (PBS) and then lysed using radioimmunoprecipitation assay (RIPA) buffer supplemented with protease and phosphatase inhibitor cocktail (Roche) on ice for 15 minutes. The lysates were centrifuged at 14,000 rpm for 15 minutes at 4° C. and protein was quantified by bicinchoninic acid (BCA) assay (Pierce™). […]
FIG. 2A is an immunoblot showing that compound 13 degraded Wee1 after a 6-hour treatment in MOLT4 cells, and induced the downstream changes expected from Wee1 loss—including a decrease in phosphorylated cyclin-dependent kinase 1 (pCDK1) (Y15) and an increase in pH 3. […] Proteins of interest were then assessed by western blotting.

## C=CCn1c(=O)c2cnc(Nc3ccc(N4CCN(CCCNc5cccc6c5C(=O)N(C5CCC(=O)NC5=O)C6=O)CC4)cc3)nc2n1-c1cccc(C(C)(C)O)n1 (centres unmarked) [Compound 13, 4-((3-(4-(4-((2-allyl-1-(6-(2-hydroxypropan-2-yl)pyridin-2-yl)-3-oxo-2,3-dihydro-1H-pyrazolo[3,4-d]pyrimidin-6-yl)amino)phenyl)piperazin-1-yl)propyl)amino)-2-(2,6-dioxopiperidin-3-yl)isoindoline-1,3-dione]
[1]; Example 28, FIG. 3A/3B, 72-hour
  Rescue of anti-proliferative activity, CRBN−/− versus WT MOLT4 cells: ~15 fold
[1]; Example 32, FIG. 6A
  Shift in cellular IC50, CRBN−/− versus parental MOLT4 cells: approximately 6 fold
[1]; Homo sapiens, MOLT-4, MOLT4 CRBN−/− cells, 72 hours, CellTiter-Glo, read-out: Antiproliferative IC50
  IC50: 2220 nM
[2]; CRBN−/− MOLT4 cells
  Dose from which pCDK1 Y15 is decreased: 1 μM
[2]; MOLT4 cells
  Fold lower doses than AZD1775 for the same downstream effects: up to 10 fold
[2]; parental MOLT4 cells
  Dose from which pCDK1 Y15 is reduced: 100 nM
[3]; 6-hour treatment
  PLK1 degradation: not degraded
[3]; treated for up to 48 hrs
  PLK1 levels: not reduced
